The test system of assay [1] is LTB4 induced neutrophil degranulation. The assay is described as follows: Human Neutrophil Degranulation Assay (LTB4 induced myeloperoxidase release). Type of assay: cell-based. The conditions noted are these: LTB4 5×10^-8 M, cytochalasin B, human neutrophils, 7 minutes preincubation with compound, read-out: Inhibition of LTB4 Induced Neutrophil Degranulation IC50. The source says: (§1) For use in both the "LTB4 receptor Binding Assay" and the "Human Neutrophil Degranulation Assay", neutrophils were purified from venous blood of normal human donors using standard techniques of dextran sedimentation, centrifugation on Histopaque® (density solution) and hypotonic lysis of erythrocytes (Boyum, A., Isolation of Leukocytes From Human Blood: Further Observations. Scand. J. Lab. Clin. Inves. 21 (Suppl. 97): 31, 1968). The purity of isolated neutrophils was ≥95%.
LTB4 induced neutrophil degranulation was determined by measuring the release of myeloperoxidase activity into the incubation medium. Neutrophils (3×10^6) in 1 ml HBSS solution was preincubated with cytochalasin B(5 μg) at 37° C. for 5 minutes, followed by preincubation with test compounds for 7 minutes. Neutrophils were then incubated for 2 to 20 minutes with either LTB4 (5×10^-8 M) or the chemotactic peptide f-met-leu-phe ([…]) to induce degranulation. Following incubation, samples were centrifuged and myleoperoxidase was extracted from the cell pellets by sonication in phosphate buffer containing 0.4% Triton X-100. Triton X-100 was also added to the supernatents to a concentration of 0.4%. The supernatants and the pellet extracts were then assayed spectrophotometrically for myeloperoxide activity by determining the rate of decomposition of H2 O2 with o-dianisidine as hydrogen donor as described by Renlund, D. G., MacFarlane, J. L., Christensen, R. D., Lynch, R. E., and Rothstein, G., A Quantitative And Sensitive Method For Measurement Of Myeloperoxidose, Clinical Research 28: 75A, 1980). Myeloperoxidase activity released into the supernatant was expressed as the percent of the average total activity (pellet plus supernatant).
The inhibition of LTB4 induced neutrophil degranulation was determined for representative compounds of this invention and their corresponding IC50 values were calculated (Table 1). The concentration of a compound which inhibited LTB4 induced neutrophil degranulation by 50% was determined to be its IC50 value.

Another assay has as its target T1, LTB4 receptors (Homo sapiens, UniProt Q15722).
T1 construct: neutrophils were purified from venous blood of normal human donors; endogenous in cells; host or cells: neutrophils purified from venous blood of normal human donors (purity ≥95%)
The assay is described as follows: LTB4 Receptor Binding Assay ((3H) LTB4, human neutrophils). As to conditions: 0.6 nM (3H) LTB4, human neutrophils; for IC50: 0° C., 45 minutes, pH 7.4, read-out: Inhibition of Receptor Binding of LTB4 IC50.
From the text: as §1
Neutrophils (4-6×10^6) in 1 ml of Hanks' balanced salt solution containing 10 mM Hepes Buffer (HBSS), pH 7.4 and 30 μM nordihydroguaiaretic acid were incubated with 0.6 nM (^3 H) LTB4 in the presence or absence of test compounds. The incubation was carried out at 0° C. for 45 minutes and terminated by adding 5 ml of ice-cold HBSS followed by rapid filtration of incubation mixture under vacuum through GF/C glass fiber filters. The filters were further washed with 10 ml HBSS and their radioactivity was determined. Specific binding was defined as the difference between total binding and nonspecific binding which was not displaced by 10^-7 M unlabeled LTB4.
The inhibition of specific binding was determined for representative compounds of this invention, and the corresponding IC50 values calculated (Table 1). An IC50 is the concentration of the compound of interest which will inhibit the binding of LTB4 by 50% of the LTB4 receptors. For example, for the compound of Example 7, the IC50 was determined to be approximately 5 μM.

Where “and” joins values, the source holds several entries; their conditions need not be identical. Equal entries are not always repeated. Structures can show the parent of a compound that is named as a salt.

T1 sequence (Q15722 whole entry): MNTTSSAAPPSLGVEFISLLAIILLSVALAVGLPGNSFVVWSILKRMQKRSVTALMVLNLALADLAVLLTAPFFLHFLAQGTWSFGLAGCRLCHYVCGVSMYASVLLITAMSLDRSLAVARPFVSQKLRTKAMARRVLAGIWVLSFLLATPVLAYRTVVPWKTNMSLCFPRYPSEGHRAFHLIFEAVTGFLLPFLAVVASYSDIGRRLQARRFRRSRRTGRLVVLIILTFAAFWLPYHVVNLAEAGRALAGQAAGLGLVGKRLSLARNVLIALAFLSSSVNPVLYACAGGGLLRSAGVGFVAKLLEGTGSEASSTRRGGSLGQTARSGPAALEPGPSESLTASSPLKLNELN

As usually defined, the IC50 is the concentration that inhibits the measured activity by half. In the case of `CCCCCCCCC(O)c1ccc(/C=C\C(O)CCCC(=O)OC)cc1` (stereo not shown) [Example 12, Methyl 7-[4-(1-hydroxynonyl)phenyl]-5-hydroxy-6Z-heptenoate], the half-inhibitory concentration (IC50) in assay [1] was found to be 650 nM; at LTB4 receptors, 1000 nM.
`CCCCCCCCC(O)c1ccc(/C=C\C(O)CCCC(=O)O)s1` (stereo not shown) [Example 23, 7-[2-[5-(1-hydroxynonyl)]thienyl-5-hydroxy-6Z-heptenoic acid, lithium salt]: the results for the IC50 (in assay [1]; on LTB4 receptors) were 1800 nM and 5000 nM, respectively.
In the case of `CCCCC/C=C\CC(O)c1ccc(/C=C\[C@@H](O)CCCC(=O)O)cc1` (stereo partly drawn) [Example 7, 7[4-(1-hydroxy-3Z-nonenyl)phenyl]-5S-hydroxy-6Z-heptenoic acid, lithium salt], the IC50 in assay [1] was 700 nM; at LTB4 receptors it was ~5000 nM and 5000 nM.
As to `CCCCCCCCC(O)c1ccc(/C=C\C(O)CCCC(=O)O)cc1` (stereo not shown) [Example 21, 7-[4-(1-hydroxynonyl)phenyl]-5-hydroxy-6Z-heptenoic acid, lithium salt], the results for the IC50 (in assay [1]; at LTB4 receptors) were 1000 nM and 2000 nM, respectively.
For orientation: inhibition means the percentage by which the read-out fell short of the control. Lower therefore signals little suppression. Consider `CCCCCCCCC(O)c1ccc(C#CC(O)CCCC(=O)O)s1` (stereo not shown) [Example 22, 7-[2-[5-(1-hydroxynonyl)]thienyl-5-hydroxy-6Z-heptynoic acid, lithium salt], for which the concentration for half-maximal inhibition (IC50) in assay [1] stood at 8700 nM. Moreover, on LTB4 receptors (at 10μM), at 10 µM the inhibition was 20%.

The record behind these values is US4791133A, “Phenylene, furyl, and thienyl leukotriene B4 analogues” (G. D. Searle & Co., priority 1987, dated 1988).
